ChEMBL document CHEMBL3988442, “University of Dundee, Small-Polar-MMV Screening Library” (2021)

test: In vitro enzyme assay to detect hydrolysis of chlorophenol red-beta-D-[…] directly proportional to the number of Toxoplasma stably expressing beta-galactosidase; type: functional, organism-based, Toxoplasma gondii; details: not given

Compound | pIC50
O=C(CN1CCc2sccc2C1)Nc1ccnc2ccnn12 | 5.251
OC1CCN(c2ccnc(NCCc3ccccc3Cl)n2)C1 (centres undefined) | 5.797
CCc1cc(N2CCC(NCCc3ccccc3F)CC2)nc(C)n1 | 4.968

same assay, conditions: Toxoplasma gondii

Compound | IC50
COc1ccc(C2=NOC(C(=O)N3CCCc4ccccc43)C2)cc1 (centres undefined) | 27.9 µM
COC(=O)c1cnc2c(c(C)nn2C)c1OC | > 50.1 µM
NC(=O)C(Cc1ccccc1)NS(=O)(=O)Cc1ccccc1Cl (centres undefined) | > 50.1 µM
CCOCCNC(=O)c1cccnc1Sc1cc(OC)ccc1OC | > 50.1 µM
Cc1c(-c2ccccc2)nc2c(c(C)c(C)n2CCN(C)C)c1N | 15.6 µM
COCC(=O)NCc1nn(CCN2CCCC2)c(=O)c2ccccc12 | 26.7 µM
O=C(NCCn1cnc(C2CCCC2)cc1=O)NCc1cccs1 | 7.44 µM
CCN1CC2(CC1=O)CN(Cc1ccoc1)CCN(C(=O)C(C)C)C2 (centres undefined) | > 50.1 µM
CC(=O)N1CC[C@@]2(C(=O)Nc3ccccc3)CCN(S(C)(=O)=O)CC[C@@H]12 | > 50.1 µM
O=C(C[C@@H]1COC[C@H]2CN(Cc3ccncc3)C[C@@H]12)N1CCCC1 | > 50.1 µM
CC(C)NC(=O)C1CN(C(=O)CCc2ccccc2)CC12CCOCC2 (centres undefined) | > 50.1 µM
Cc1cc(CN2CCC3(CC2)COC(COc2ccccn2)C3)no1 (centres undefined) | > 50.1 µM
Cc1ccc(CN2CCCn3c(nc(Cn4ccnc4)cc3=O)C2)o1 | > 50.1 µM
O=C([C@@H]1CCO[C@@H]2CCN(CC3CC3)C[C@H]21)N1CCCCO1 | > 50.1 µM
COc1ccc(-n2nnc(C(=O)O)c2-c2ccccn2)cc1 | 24.8 µM
Cc1c(C)n(Cc2ccccn2)c2nc3c(c(N)c12)CCCCCC3 | 6.75 µM
CS(=O)(=O)Nc1nn(Cc2ccc(F)cc2)cc1Br | > 50.1 µM
Cc1cccc(Cn2cc(Br)c(NS(C)(=O)=O)n2)c1 | > 50.1 µM
COc1cc2cc(C(=O)NCC(=O)O)n(C)c2c(OC)c1OC | > 50.1 µM
CCC1=NC(SCC(=O)c2ccccc2)c2cc(CC)sc2N1 (centres undefined) | 14.9 µM
CCC1=NC(SCC(=O)c2ccc(C)cc2)c2cc(CC)sc2N1 (centres undefined) | > 50.1 µM
CCC1=NC(SCC(=O)c2ccc(OC)cc2)c2cc(CC)sc2N1 (centres undefined) | 37.7 µM

Compound | IC50
Cc1c(S(=O)(=O)NC2CC2)cc2c(C)cc(=O)n3c2c1CCC3 | 48.5 µM
Cc1c(S(=O)(=O)N2CCOCC2)cc2c(C)cc(=O)n3c2c1CCC3 | > 50.1 µM
CN(C)c1ncc2c(n1)CN(C1CCSCC1)C2=O | > 50.1 µM
Cc1nn(C)c(C)c1CNC(=O)c1cc(NC(=O)C2CC2)n(C)n1 | > 50.1 µM
CNc1ncc2c(n1)CN(c1cccc(OC)c1)C2=O | > 50.1 µM
CCNc1ncc2c(n1)CN(c1cccc(OC)c1)C2=O | > 50.1 µM
CCNc1ncc2c(n1)CN(c1ccc(C)c(C)c1)C2=O | > 50.1 µM
CCNc1ncc2c(n1)CN(c1ccc(OC(F)(F)F)cc1)C2=O | > 50.1 µM
CCNc1ncc2c(n1)CN(c1ccc(Cl)cc1)C2=O | > 50.1 µM
CCc1nc(Nc2cccc(C(=O)NC)c2)c2c(n1)c(C)nn2CC | > 50.1 µM
CCCc1nc(NCCOC)c2c(n1)c(C)nn2CC | > 50.1 µM
CCCc1nc(NCCCOC)c2c(n1)c(C)nn2CC | 34 µM
CCn1nc(C)c2nc(C(C)C)nc(NCC(C)O)c21 (centres undefined) | > 50.1 µM
CCCc1nc(NCCCOCC)c2c(n1)c(C)nn2CC | > 50.1 µM
CCCc1nc(NCCCn2ccnc2)c2c(n1)c(C)nn2CC | > 50.1 µM
Cc1nn(C)c2c(N(C)Cc3ccco3)nc(C3CC3)nc12 | 11.8 µM
CCn1nc(C)c2nc(C(C)C)nc(NCCCn3cccn3)c21 | 35.2 µM
CCn1nc(C)c2nc(C(C)C)nc(NCCCn3ccnc3)c21 | > 50.1 µM
CCN(CC)CCNc1nc(C(C)C)nc2c(C)nn(CC)c12 | > 50.1 µM
CCn1nc(C)c2nc(C(C)C)nc(NC)c21 | > 50.1 µM
CC(C)n1cc(S(=O)(=O)N2CCCCCC2)cn1 | > 50.1 µM
Cc1cc(C(=O)N(C)Cc2cccs2)nc(N2CCCCC2)n1 | > 50.1 µM

Compound | IC50
c1cnc(-c2nn3c(CN4CCCCC4)nnc3s2)cn1 | > 50.1 µM
CCn1cc(NC(=O)c2cc(C)nc(N3CCOCC3)n2)cn1 | > 25.1 µM
c1ccc(-c2nn3c(CN4CCOCC4)nnc3s2)nc1 | > 50.1 µM
c1cnc(-c2nn3c(CN4CCOCC4)nnc3s2)cn1 | > 50.1 µM
CC(C)(C)c1cn2c(n1)C(CNCc1cnn3ccccc13)CCC2 (centres undefined) | 2.52 µM
CCN(CCNS(=O)(=O)N1CCOCC1)C(=O)OC(C)(C)C | > 50.1 µM
CNc1ncc(C(=O)N2CCCC(Cc3ccccc3OC)C2)s1 (centres undefined) | 45.9 µM
COc1ccc(C2CCCN2c2ccnc(C)c2Cl)c(OC)c1 (centres undefined) | 14 µM
COC(=O)c1ccc2c(c1)CCCN2S(=O)(=O)c1cn(C)c(C)n1 | 7.21 µM
CC(C)c1ocnc1C(=O)Nc1cccc(Cn2ccccc2=O)c1 | > 50.1 µM
CCC(C)(CC(=O)OC)NCc1cc(C)on1 (centres undefined) | > 50.1 µM
COCc1nnc(-c2cccc(C(=O)N(C)CC(C)(C)C)c2)o1 | > 50.1 µM
O=C(CN1CCCc2cc(F)cc(F)c21)Nc1ccc(Br)cn1 | 30.4 µM
O=C(Nc1ccncc1)NC1CCN(c2ccccc2OC(F)F)C1 (centres undefined) | 1.87 µM
O=C(NCCN1CCOCC1)c1cc(-c2ccc(Cl)s2)[nH]n1 | 5.29 µM
CCc1cc(=O)[nH]c(-c2ccc(NCCc3ccc(O)cc3)nc2)n1 | 1.18 µM
COc1cc2nc(NCc3scnc3C)nc(N)c2cc1OC | 15.6 µM
Cc1c(CC(=O)N2CCN(C(C)C)CC2)nnn1-c1ccccc1 | > 50.1 µM
COc1ccc(-c2nnc(SC(C)C(=O)NC3CCCC3)[nH]2)c(OC)c1 (centres undefined) | > 50.1 µM
O=C(CN1CCc2sccc2C1)Nc1ccnc2ccnn12 | 2.81 µM
OC1CCN(c2ccnc(NCCc3ccccc3Cl)n2)C1 (centres undefined) | 2.35 µM
CCc1cc(N2CCC(NCCc3ccccc3F)CC2)nc(C)n1 | 8.65 µM

Compound | IC50
c1csc(-c2noc(C3CNC3)n2)c1 | 2.96 µM
Cc1cc(NCCO)nc(N2CCC(Cc3ccccc3)CC2)c1C#N | 10.7 µM
CO[C@H]1CC[C@H]2[C@H]1OCCN2Cc1ccc(F)c(F)c1 | > 50.1 µM
Fc1cnc(N2CCO[C@H]3CN(CC4CCCCC4)C[C@H]32)nc1 | > 50.1 µM
COCC(=O)N1C[C@@H](OCc2ccncc2)[C@@H]2OCCC[C@@H]21 | > 50.1 µM
O=C1COC2(CCN(S(=O)(=O)C3CC3)CC2)CN1c1cccnc1 | > 50.1 µM
CC(C)CC(=O)N1CC[C@H]2N(C)CC[C@@]2(C(=O)Nc2ccccc2)CC1 | > 50.1 µM
Cn1cccc1C(=O)N1C[C@@H](OCc2ccncc2)[C@@H]2OCCC[C@@H]21 | > 50.1 µM
COCC(=O)N1CCn2c(COc3cccnc3)cnc2C1C (centres undefined) | > 50.1 µM
Cn1cc(N2CC3(CCN(Cc4nccs4)CC3)OCC2=O)cn1 | > 50.1 µM
CS(=O)(=O)N1CCOCC2(CCN(c3ccccn3)C2)C1 (centres undefined) | > 50.1 µM
COC[C@@H]1CCC[C@@]12CN(Cc1ccc(C)s1)CCO2 | > 50.1 µM
O=C([C@@H]1CCO[C@@H]2CCN(Cc3ccc(F)cc3)C[C@H]21)N1CCCCO1 | > 50.1 µM
Cn1cc(CN2CCn3cc(Cn4cccn4)nc3C2)cn1 | > 50.1 µM
O=C(N1CCOCC1)[C@@]12CCO[C@@H]1CCN(C1CCOCC1)C2 | > 50.1 µM
O=C(N1CCOCC1)[C@@]12CCO[C@@H]1CCN(C1CCC1)C2 | > 50.1 µM
O=C(N1CCCC1)N1C[C@H]2CCC[C@@]2(COCc2ccccn2)C1 | > 50.1 µM
Cc1cccc(CN2CCc3nnc(CN4CCCCC4)n3CC2)n1 | > 50.1 µM
CCN1CC2(CC1=O)CN(Cc1ccncc1)CCN(C(=O)C(C)C)C2 (centres undefined) | > 50.1 µM
Cn1cc(CN2C[C@@H]3COC[C@H](C(=O)Nc4cccnc4)[C@@H]3C2)cn1 | > 50.1 µM
